In PubChem BioAssay (NCI):
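Exposure lasted 48 hours, with cells grown in 96-well plates and compounds tested at five concentrations. Abbreviation: GI50, concentration required for 50% inhibition of growth. The concentration for full growth arrest is given as TGI.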

Legend:
Experiment in all cases: NCI tumour cell line growth inhibition, 48 h
[1] = test system: CCRF-CEM leukemia
[2] = test system: HOP-62 NSCLC
[3] = test system: OVCAR-3 ovarian
[4] = test system: RXF 393 renal
[5] = test system: HT29 colon
[6] = test system: SN12C renal
[7] = test system: CAKI-1 renal
[8] = test system: SNB-19 CNS
[9] = test system: HCT-15 colon
[10] = test system: MDA-MB-435

**Q.** Which results are given for `O=C1c2ccccc2C(=O)c2cc3c(cc21)CS(=O)C3`?
**A.** TGI [1]: > 100 µM; TGI [2]: > 100 µM; TGI [3]: > 100 µM; TGI [4]: > 100 µM; TGI [5]: > 100 µM; TGI [6]: 43.3 µM; TGI [7]: > 100 µM; TGI [8]: > 100 µM

**Q.** For `Cc1nc(N)nc(N)c1CCCCc1ccc(N)cc1`, which TGI [1] is on record?
**A.** The TGI was 22.5 µM.

**Q.** And the TGI [9]?
**A.** The TGI was 18.4 µM.

**Q.** And the TGI [2]?
**A.** Its TGI is 18.2 µM.

**Q.** What about the TGI [3] of the same compound?
**A.** Its TGI is 20.9 µM.

**Q.** What about the TGI [5] of the same compound?
**A.** The TGI was 15.1 µM.

**Q.** What about the TGI [6] of the same compound?
**A.** The TGI was 16.9 µM.

**Q.** And the TGI [7]?
**A.** Its TGI is 39.5 µM.

**Q.** What about the TGI [8] of the same compound?
**A.** Its TGI is 20.4 µM.

**Q.** With `O=C(c1ccc(O)cc1O)C1C(c2ccc(O)cc2)OC(c2ccc(O)cc2)C1C(=O)c1ccc(O)cc1O` (centres undefined) as the compound, how does the TGI [2] read?
**A.** The TGI was 22.9 µM.

**Q.** What about the TGI [3] of the same compound?
**A.** The TGI was 40 µM.

**Q.** And the TGI [4]?
**A.** The TGI was 45.5 µM.

**Q.** And the TGI [5]?
**A.** The TGI was over 100 µM.

**Q.** What about the TGI [7] of the same compound?
**A.** The TGI was over 100 µM.

**Q.** And the TGI [8]?
**A.** The TGI was 45.2 µM.

**Q.** With `CCOC(=O)[C@@H](C)C[C@H](Cc1ccccc1)NC(=O)c1csc([C@@H](C[C@H](C(C)C)N(C)C(=O)[C@@H](NC(=O)[C@H]2CCCCN2C)C(C)(C)CC)OC(C)=O)n1` as the compound, how does the GI50 [1] read?
**A.** The GI50 was 0.00246 µM.

**Q.** What about the TGI [1] of the same compound?
**A.** The TGI was over 8.65 µM.

**Q.** And the GI50 [9]?
**A.** The GI50 was under 0.00167 µM.

**Q.** What about the TGI [9] of the same compound?
**A.** Its TGI is over 5.93 µM.

**Q.** And the GI50 [2]?
**A.** Its GI50 is 0.00178 µM.

**Q.** And the TGI [2]?
**A.** The TGI was over 16.7 µM.

**Q.** What about the GI50 [10] of the same compound?
**A.** Its GI50 is under 0.00167 µM.

**Q.** What about the TGI [10] of the same compound?
**A.** The TGI was under 0.00167 µM.

**Q.** What about the GI50 [3] of the same compound?
**A.** Its GI50 is under 0.00167 µM.

**Q.** And the GI50 [5]?
**A.** Its GI50 is under 0.00167 µM.

**Q.** What about the TGI [5] of the same compound?
**A.** Its TGI is over 6.79 µM.

**Q.** And the GI50 [6]?
**A.** The GI50 was 0.00247 µM.

**Q.** What about the TGI [6] of the same compound?
**A.** The TGI was 5.9 µM.

**Q.** What about the GI50 [7] of the same compound?
**A.** The GI50 was 0.00176 µM.

**Q.** And the TGI [7]?
**A.** The TGI was over 9.4 µM.

**Q.** What about the GI50 [8] of the same compound?
**A.** The GI50 was under 0.00167 µM.

**Q.** And the TGI [8]?
**A.** Its TGI is over 16.7 µM.

**Q.** For `O=C1CC2OCC=C3CN4CCC56c7ccccc7N1C5C2C3CC46O` (centres undefined), which TGI [1] is on record?
**A.** Its TGI is over 100 µM.

**Q.** And the TGI [9]?
**A.** Its TGI is over 100 µM.

**Q.** What about the TGI [10] of the same compound?
**A.** The TGI was over 100 µM.

**Q.** And the TGI [3]?
**A.** The TGI was over 100 µM.

**Q.** And the TGI [5]?
**A.** The TGI was over 100 µM.

**Q.** And the TGI [6]?
**A.** The TGI was over 100 µM.

**Q.** And the TGI [7]?
**A.** Its TGI is over 100 µM.

**Q.** And the TGI [8]?
**A.** The TGI was over 100 µM.

**Q.** `CCOC(=O)c1c(-c2ccccc2)[n+](=O)c2cc(Cl)c(Cl)cc2n1[O-]` was tested. Which GI50 [9] did it give?
**A.** The GI50 was 6.55 µM.

**Q.** And the TGI [9]?
**A.** Its TGI is 21 µM.

**Q.** And the GI50 [2]?
**A.** Its GI50 is 4.06 µM.

**Q.** What about the TGI [2] of the same compound?
**A.** Its TGI is 18.9 µM.

**Q.** What about the GI50 [10] of the same compound?
**A.** The GI50 was 5.36 µM.

**Q.** And the TGI [10]?
**A.** Its TGI is 19 µM.

**Q.** And the GI50 [3]?
**A.** The GI50 was 1.8 µM.

**Q.** What about the TGI [3] of the same compound?
**A.** The TGI was 4.41 µM.

**Q.** What about the GI50 [4] of the same compound?
**A.** Its GI50 is 6.59 µM.

**Q.** And the TGI [4]?
**A.** The TGI was 22.9 µM.

**Q.** And the GI50 [5]?
**A.** Its GI50 is 12 µM.

**Q.** And the TGI [5]?
**A.** Its TGI is 36.3 µM.

**Q.** And the GI50 [6]?
**A.** Its GI50 is 3.03 µM.

**Q.** And the TGI [6]?
**A.** Its TGI is 22.2 µM.

**Q.** And the GI50 [7]?
**A.** The GI50 was 1.64 µM.

**Q.** What about the TGI [7] of the same compound?
**A.** Its TGI is 3.2 µM.

**Q.** And the GI50 [8]?
**A.** The GI50 was 17.7 µM.

**Q.** And the TGI [8]?
**A.** The TGI was 35.1 µM.

**Q.** Which GI50 [1] does the source give for `C=C1C(=O)O[C@H]2[C@H]1CC/C(COC(=O)c1cc(OC)c(OC)c(OC)c1)=C\CC[C@@]1(C)O[C@@H]21` here?
**A.** Its GI50 is 0.293 µM.

**Q.** And the TGI [1]?
**A.** The TGI was 2.28 µM.

**Q.** And the GI50 [9]?
**A.** Its GI50 is 0.418 µM.

**Q.** What about the TGI [9] of the same compound?
**A.** The TGI was 1.82 µM.

**Q.** What about the GI50 [2] of the same compound?
**A.** The GI50 was 2.4 µM.

**Q.** What about the TGI [2] of the same compound?
**A.** The TGI was 11.5 µM.

**Q.** What about the GI50 [10] of the same compound?
**A.** Its GI50 is 1.64 µM.

**Q.** And the TGI [10]?
**A.** Its TGI is 4.13 µM.

**Q.** What about the GI50 [3] of the same compound?
**A.** The GI50 was 0.39 µM.

**Q.** And the TGI [3]?
**A.** Its TGI is 1.44 µM.

**Q.** And the GI50 [4]?
**A.** The GI50 was 0.299 µM.

**Q.** What about the TGI [4] of the same compound?
**A.** Its TGI is 1.27 µM.

**Q.** And the GI50 [5]?
**A.** The GI50 was 0.441 µM.

**Q.** And the TGI [5]?
**A.** Its TGI is 2.09 µM.

**Q.** What about the GI50 [6] of the same compound?
**A.** The GI50 was 1.24 µM.

**Q.** And the TGI [6]?
**A.** The TGI was 3.12 µM.

**Q.** What about the GI50 [8] of the same compound?
**A.** Its GI50 is 2.55 µM.

**Q.** What about the TGI [8] of the same compound?
**A.** The TGI was 10.6 µM.

**Q.** For `CC1(C)CCC(Sc2ccccc2)O1` (centres undefined), which TGI [1] is on record?
**A.** Its TGI is over 100 µM.

**Q.** What about the TGI [9] of the same compound?
**A.** Its TGI is over 100 µM.

**Q.** What about the TGI [2] of the same compound?
**A.** Its TGI is over 100 µM.

**Q.** And the TGI [3]?
**A.** Its TGI is over 100 µM.

**Q.** What about the TGI [4] of the same compound?
**A.** The TGI was over 100 µM.

**Q.** And the TGI [6]?
**A.** Its TGI is over 100 µM.

**Q.** And the TGI [7]?
**A.** The TGI was over 100 µM.

**Q.** What about the TGI [8] of the same compound?
**A.** The TGI was over 100 µM.

**Q.** Which results are given for `CCCNC(=O)Nc1c([N+](=O)[O-])cc(C(F)(F)F)cc1[N+](=O)[O-]`?
**A.** TGI [1]: > 100 µM; TGI [9]: > 100 µM; TGI [2]: > 100 µM; TGI [3]: 61.2 µM; TGI [4]: 76.1 µM; TGI [5]: > 100 µM; TGI [7]: > 100 µM; TGI [8]: > 100 µM
